Reference: patent US20060063842A1, “Hypogastric and/or perineal pain-relieving agent” (priority 2002, published 2006)
Structures can show the parent of a compound that is named as a salt.

Test system: patients with lower urinary tract symptoms
Assay: Clinical test (12 week study) to patients suffering from lower urinary tract symptoms: pain scores
Type: in vivo
Protocol: Clinical Test (12 Week Study) to Patients Suffering from Lower Urinary Tract Symptoms A clinical study was conducted in patients with lower urinary tract symptoms under the conditions shown below. Subjects: Eighteen patients diagnosed to have urinary dysfunction without accompanying obvious organic or neurological abnormality in lower urinary tract. Study drug and the method of administration: Until Week 4, capsules each containing 0.2 mg tamsulosin hydrochloride were orally administered, one capsule/time/day, after breakfast. In Week 4, the doses for later than Week 4 were determined by referring to the Table below, and the doses determined were orally administered once daily after breakfast. <Criterion of Dose after 4 Weeks> [table] Study period: 12 weeks Observed items: Evaluations and measurements were made for the following items before and after the administration. (2) Pains The pain scores shown below were evaluated before administration, and 4 and 12 weeks after administration. <1> Hypogastric/perineal pain “How strong is hypogastric/perineal pain?” • 0: No pain • 1: Slightly painful • 2: Painful • 3: Quite painful • 4: Very painful <2> Lower backache “How strong is lower backache?” • 0: No pain • 1: Slightly painful • 2: Painful • 3: Quite painful • 4: Very painful

For `CCOc1ccccc1OCCN[C@H](C)Cc1ccc(OC)c(S(N)(=O)=O)c1` [tamsulosin hydrochloride, (R)(−)-5-[2-[[2-(o-ethoxyphenoxy)ethyl]amino]propyl]-2-methoxybenzenesulfonamide], the “improvement of hypogastric/perineal pain or lower backache in patients with urinary dysfunction (overall conclusion)” value (12 week clinical study, 18 patients, oral 0.2 or 0.4 mg/day) was “effective”, the “number of patients with hypogastric/perineal pain improved to score 0 (no pain)” value (of 7 patients with score 1 (slightly painful) before administration, evaluation in Weeks 4 and 12, oral 0.2 or 0.4 mg/day once daily after breakfast) was 6 patients and the “number of patients with hypogastric/perineal pain unchanged (score 1, slightly painful)” value (of 7 patients with score 1 before administration, evaluation in Weeks 4 and 12, oral 0.2 or 0.4 mg/day) was 1 patient. The “lower backache score after administration” value (the only 1 patient with lower backache (score 1, slightly painful) before administration, evaluation in Weeks 4 and 12, oral 0.2 or 0.4 mg/day) was “improved to score 0 (no pain)”.
